pIC50: −log10 of the molar value. Where two headings read alike, the source gives them in different places.
Legend:
[1] = test system: MCF-7 human breast cancer cells; assay: Cell Titer-Glo growth inhibition, MCF-7; format: cell-based
[2] = test system: T-47D human breast cancer cells; assay: Cell Titer-Glo growth inhibition, T-47D; format: cell-based; conditions: T47D
[3] = test system: ZR-75-1 human breast cancer cells; assay: Cell Titer-Glo growth inhibition, ZR-75-1; format: cell-based
[4] = test system: MDA-MB-134-VI human breast cancer cells; assay: Cell Titer-Glo growth inhibition, MDA-MB-134VI; format: cell-based
[5] = test system: MDA-MB-415 human mammary gland/breast cancer cells; assay: Cell Titer-Glo growth inhibition, MDA-MB-415; format: cell-based
[6] = test system: MDA-MB-231 human breast cancer cells; assay: Cell Titer-Glo growth inhibition, MDA-MB-231; format: cell-based
[7] = test system: HCC70 human breast cancer cells; assay: Cell Titer-Glo growth inhibition, HCC70; format: cell-based
[8] = test system: HCC1806 human breast cancer cells; assay: Cell Titer-Glo growth inhibition, HCC1806; format: cell-based
[9] = test system: BT-549 human breast cancer cells; assay: Cell Titer-Glo growth inhibition, BT-549; format: cell-based
[10] = test system: Hs578t human breast cancer cells; assay: Cell Titer-Glo growth inhibition, Hs578t; format: cell-based; conditions: Hs-578T
[11] = test system: MDA-MB-436 human adenocarcinoma derived cancer cells; assay: Cell Titer-Glo growth inhibition, MDA-MB-436; format: cell-based
[12] = test system: OD-BRE-0745, an ER+, PR+, Her2− luminal B infiltrating ductal adenocarcinoma (patient-derived breast tumor); assay: Antitumor activity in OD-BRE-0745 PDX model; format: in vivo, Swiss nude mice; conditions: 150 mg/kg palbociclib, contribution of eribulin masked (FIGS. 10 and 12)
Experimental: A statistical test (analysis of variance) was performed to test for homogeneity between groups.

[13] = test system: MDA-MB-175-VII human breast cancer cells; assay: Cell Titer-Glo growth inhibition, MDA-MB-175VII; format: cell-based
[14] = test system: panel of 12 human breast cancer cell lines; assay: Cell Titer-Glo growth inhibition, statements for the whole panel
Experimental: MCF-7 human breast cancer cells were cultured in RPMI 1640 medium supplemented with 10% fetal bovine serum (FBS), 2 mM glutamine, 10 mM 4-(2-hydroxyethyl)-1-piperazineethanesulfonic acid (HEPES), 0.075% sodium bicarbonate, 100 units/mL sodium penicillin G, 100 μg/mL streptomycin sulfate and 25 μg/mL gentamicin. T-47D human breast cancer cells were cultured in RPMI 1640 medium supplemented with 10% FBS, 4.5 g/L glucose, 2 mM glutamine, 10 mM HEPES, 0.2 units/mL Insulin, 1 mM sodium pyruvate, 100 units/mL sodium penicillin G, 100 μg/mL streptomycin sulfate and 25 μg/mL gentamicin. ZR-75-1 human breast cancer cells were cultured in RPMI 1640 medium supplemented with 10% FBS, 4.5 g/L glucose, 2 mM glutamine, 10 mM HEPES, 1 mM sodium pyruvate, 100 units/mL sodium penicillin G, 100 μg/mL streptomycin sulfate and 25 μg/mL gentamicin. MDA-MB-134-VI human breast cancer cells were cultured in Leibovitz's L-15 medium supplemented with 20% FBS, 2 mM glutamine, 100 units/mL sodium penicillin G, 100 μg/mL streptomycin sulfate and 25 μg/mL gentamicin. MDA-MB-175-VII human breast cancer cells were cultured in Leibovitz's L-15 medium supplemented with 10% FBS, 2 mM glutamine, 10 mM HEPES, 100 units/mL sodium penicillin G, 100 μg/mL streptomycin sulfate and 25 μg/mL gentamicin. […]

[15] = 72 h, read-out: Mean IC50, single agent Eribulin

## CC(=O)c1c(C)c2cnc(Nc3ccc(N4CCNCC4)cn3)nc2n(C2CCCC2)c1=O [Palbociclib, 6-acetyl-8-cyclopentyl-5-methyl-2-[(5-piperazin-1-ylpyridin-2-yl)amino]pyrido[2,3-d]pyrimidin-7-one]
[1]; MCF7, MCF-7, 72 h drug exposure, read-out: Mean IC50, single agent Palbociclib
  pIC50: < 5.00
[2]; T-47D, 72 h drug exposure, read-out: Mean IC50, single agent Palbociclib
  pIC50: < 5.00
[3]; ZR-75-1, 72 h drug exposure, read-out: Mean IC50, single agent Palbociclib
  pIC50: < 5.00
[4]; MDA-MB-134VI, 72 h drug exposure, read-out: Mean IC50, single agent Palbociclib
  pIC50: 5.61
[5]; MDA-MB-415, 72 h drug exposure, read-out: Mean IC50, single agent Palbociclib
  pIC50: 5.79
[6]; MDA-MB-231, 72 h drug exposure, read-out: Mean IC50, single agent Palbociclib
  pIC50: 6.41
[7]; HCC70, 72 h drug exposure, read-out: Mean IC50, single agent Palbociclib
  pIC50: < 5.00
[8]; HCC1806, 72 h drug exposure, read-out: Mean IC50, single agent Palbociclib
  pIC50: < 5.00
[9]; BT-549, 72 h drug exposure, read-out: Mean IC50, single agent Palbociclib
  pIC50: < 5.00
[10]; Hs578t, 72 h drug exposure, read-out: Mean IC50, single agent Palbociclib
  pIC50: < 5.00
[11]; MDA-MB-436, 72 h drug exposure, read-out: Mean IC50, single agent Palbociclib
  pIC50: 5.52
[12]
  Tumor response at the higher amount of palbociclib: overwhelmed the response

## C=C1C[C@@H]2CC[C@@]34C[C@H]5O[C@H]6[C@@H](O3)[C@H]3O[C@H](CC[C@@H]3O[C@H]6[C@H]5O4)CC(=O)C[C@@H]3[C@@H](OC)[C@@H](C[C@H](O)CN)O[C@H]3C[C@H]3O[C@@H](CC[C@@H]1O2)C[C@@H](C)C3=C [Eribulin]
[1]; MCF7, 72 h, read-out: Mean IC50, single agent Eribulin
  pIC50: 9.60
[1]; MCF7, read-out: Mean IC50 of eribulin dose response with constant 1 μM Palbociclib
  pIC50: 9.22
[2]; [15]
  pIC50: 9.73
[3]; ZR-75-1, 72 h, read-out: Mean IC50, single agent Eribulin
  pIC50: < 6.00
[4]; MDA-MB-134-VI, 72 h, read-out: Mean IC50, single agent Eribulin
  pIC50: 9.31
[4]; MDA-MB-134-VI, read-out: Mean IC50 of eribulin dose response with constant 1 μM Palbociclib
  pIC50: 7.68
[13]; Homo sapiens, MDA-MB-175-VII, 72 h, 72 h drug exposure, read-out: Mean IC50, single agent Eribulin
  pIC50: 9.92
[13]; Homo sapiens, MDA-MB-175-VII, eribulin 3.8 pM to 1 μM, constant 10 μM palbociclib, read-out: Mean IC50 of eribulin dose response with constant 10 μM Palbociclib
  pIC50: 7.03
[13]; eribulin 3.8 pM to 1 μM, constant 10 μM palbociclib, listed as Eribufin, read-out: Mean IC50 of eribulin dose response with constant 10 μM Palbociclib
  pIC50: 7.04
[5]; MDA-MB-415, 72 h, read-out: Mean IC50, single agent Eribulin
  pIC50: 9.39
[6]; MDA-MB-231, 72 h, read-out: Mean IC50, single agent Eribulin
  pIC50: 9.83
[6]; MDA-MB-231, read-out: Mean IC50 of eribulin dose response with constant 1 μM Palbociclib
  pIC50: 8.84
[7]; HCC70, 72 h, read-out: Mean IC50, single agent Eribulin
  pIC50: 9.34
[7]; HCC70, read-out: Mean IC50 of eribulin dose response with constant 1 μM Palbociclib
  pIC50: 9.42
[7]; HCC70, read-out: Mean IC50 of eribulin dose response with constant 10 μM Palbociclib
  pIC50: 7.67
[8]; HCC1806, 72 h, read-out: Mean IC50, single agent Eribulin
  pIC50: 9.85
[8]; HCC1806, read-out: Mean IC50 of eribulin dose response with constant 1 μM Palbociclib
  pIC50: 9.56
[9]; BT-549, 72 h, read-out: Mean IC50, single agent Eribulin
  pIC50: 9.54
[9]; BT-549, read-out: Mean IC50 of eribulin dose response with constant 1 μM Palbociclib
  pIC50: 9.43
[9]; BT-549, read-out: Mean IC50 of eribulin dose response with constant 10 μM Palbociclib
  pIC50: 9.07
[10]; [15]
  pIC50: 9.45
[10]; read-out: Mean IC50 of eribulin dose response with constant 1 μM Palbociclib
  pIC50: 7.84
[10]; read-out: Mean IC50 of eribulin dose response with constant 10 μM Palbociclib
  pIC50: 9.10
[11]; MDA-MB-436, 72 h, read-out: Mean IC50, single agent Eribulin
  pIC50: 9.07
[11]; MDA-MB-436, read-out: Mean IC50 of eribulin dose response with constant 1 μM Palbociclib
  pIC50: 8.69
[11]; MDA-MB-436, read-out: Mean IC50 of eribulin dose response with constant 10 μM Palbociclib
  pIC50: 8.20
[14]; Homo sapiens, read-out: IC50, single agent, overall statement
  pIC50: > 9.00
[14]; all cell lines, constant dose of 10 μM or 1 μM of palbociclib
  Potentiation of eribulin growth inhibition by palbociclib: No potentiation effect

From patent publication US20200129473A1, “USE OF ERIBULIN AND CYCLIN DEPENDENT KINASE INHIBITORS IN THE TREATMENT OF CANCER” (EISAI R&D MANAGEMENT CO., LTD., priority 2017, published 2020)
